Data: US11702404B2, “GLP-1R modulating compounds” (priority 2019, dated 2023)
Read-outs that look alike come from different tables or passages of the source.

What was measured:
[1] = Microsomal stability, human liver microsomes (predicted hepatic clearance); conditions: predicted from in vitro microsomal stability data
GLP-1R = GLP-1R (Homo sapiens, UniProt P43220); experiment: GLP-1R activation: cAMP increase in CHO cells stably expressing GLP-1R; format: cell-based
[2] = cAMP increase, CHO cells stably expressing GLP-1R, 10 point dose response, 30 minutes incubation, read-out: EC50

GLP-1R, sequence (P43220 24-463): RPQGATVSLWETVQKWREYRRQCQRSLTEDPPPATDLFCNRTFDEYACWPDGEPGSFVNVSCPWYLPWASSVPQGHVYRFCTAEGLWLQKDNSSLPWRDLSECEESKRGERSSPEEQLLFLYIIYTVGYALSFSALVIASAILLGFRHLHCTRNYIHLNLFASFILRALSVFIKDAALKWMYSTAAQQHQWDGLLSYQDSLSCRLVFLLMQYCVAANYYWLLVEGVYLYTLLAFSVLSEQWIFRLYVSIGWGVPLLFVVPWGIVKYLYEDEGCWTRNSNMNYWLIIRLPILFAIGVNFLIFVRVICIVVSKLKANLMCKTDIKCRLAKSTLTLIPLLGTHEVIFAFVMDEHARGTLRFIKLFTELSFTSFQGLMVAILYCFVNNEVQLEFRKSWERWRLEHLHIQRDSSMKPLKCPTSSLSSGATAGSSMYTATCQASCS

Predicted Hepatic Clearance (Pred. Cl.) [1] [mL/min/kg]	EC50 (GLP-1R; [2]) [nM]	Structure (SMILES)	EC50 (GLP-1R; EC50 (nM)) [nM]
6.83	131	COCCn1c(Cc2ccc(-c3cccc(OCc4ccc(C#N)cc4F)n3)cc2-c2ccc(C#N)cc2)nc2ccc(C(=O)O)cc21 [Example 193, 2-((4′-cyano-5-(6-((4-cyano-2-fluorobenzyl)oxy)pyridin-2-yl)-[1,1′-biphenyl]-2-yl)methyl)-1-(2-methoxyethyl)-1H-benzo[d]imidazole-6-carboxylic acid]	–
4.67	0.86	N#Cc1ccc(COc2cccc(-c3ccc(Cc4nc5ccc(C(=O)O)cc5n4C[C@@H]4CCCO4)c(F)c3)n2)c(F)c1 [Example 194, (S)-2-(4-(6-((4-cyano-2-fluorobenzyl)oxy)pyridin-2-yl)-2-fluorobenzyl)-1-((tetrahydrofuran-2-yl)methyl)-1H-benzo[d]imidazole-carboxylic acid]	–
9.5	15.8	COCCn1c(Cc2ccc(-c3cccc(NCc4ccc(C#N)cc4OC)n3)cc2F)nc2ccc(C(=O)O)cc21 [Example 195]	–
5.83	4.61	N#Cc1ccc(COc2cccc(-c3ccc(Cc4nc5ccc(C(=O)O)cc5n4C[C@H]4CCOC4)c(F)c3)n2)c(F)c1 [Example 196, (R)-2-(4-(6-((4-cyano-2-fluorobenzyl)oxy)pyridin-2-yl)-2-fluorobenzyl)-1-((tetrahydrofuran-3-yl)methyl)-1H-benzo[d]imidazole-carboxylic acid]	–
6	7.77	N#Cc1ccc(COc2cccc(-c3ccc(Cc4nc5ccc(C(=O)O)cc5n4C[C@@H]4CCOC4)c(F)c3)n2)c(F)c1 [Example 197, (S)-2-(4-(6-((4-cyano-2-fluorobenzyl)oxy)pyridin-2-yl)-2-fluorobenzyl)-1-((tetrahydrofuran-3-yl)methyl)-1H-benzo[d]imidazole-carboxylic acid]	–
5.17	8.69	N#Cc1ccc(COc2cccc(-c3ccc(Cc4nc5ccc(C(=O)O)cc5n4C[C@H]4CCCO4)c(F)c3)n2)c(F)c1 [Example 198, (R)-2-(4-(6-((4-cyano-2-fluorobenzyl)oxy)pyridin-2-yl)-2-fluorobenzyl)-1-((tetrahydrofuran-2-yl)methyl)-1H-benzo[d]imidazole-carboxylic acid]	–
<1.83	20.8	N#Cc1ccc(COc2ncccc2-c2cc(F)c(Cc3nc4ccc(C(=O)O)cc4n3CC3(CF)CC3)c(F)c2)c(F)c1 [Example 199, 2-(4-(2-((4-cyano-2-fluorobenzyl)oxy)pyridin-3-yl)-2,6-difluorobenzyl)-1-((1-(fluoromethyl)cyclopropyl)methyl)-1H-benzo[d]imidazole-carboxylic acid]	–
2.83	18	COCCn1c(Cc2ccc(-c3cccc(OCc4ccc(C#N)cc4F)n3)cc2F)nc2ccc(C(=O)O)nc21 [Example 200, 2-(4-(6-((4-cyano-2-fluorobenzyl)oxy)pyridin-2-yl)-2-fluorobenzyl)-3-(2-methoxyethyl)-3H-imidazo[4,5-b]pyridine-5-carboxylic acid]	–
3	4420	COCCn1c(Cc2ccc(-c3cccc(OCc4ccc(C#N)cc4F)n3)cc2F)nc2cccc(C(=O)O)c21 [Example 201, 2-(4-(6-((4-cyano-2-fluorobenzyl)oxy)pyridin-2-yl)-2-fluorobenzyl)-1-(2-methoxyethyl)-1H-benzo[d]imidazole-7-carboxylic acid]	–
5.25	3.34	COCCn1c(Cc2cc(F)c(-c3nc(OCc4ccc(C#N)cc4F)ccc3F)cc2F)nc2ccc(C(=O)O)cc21 [Example 202, 2-(4-(6-((4-cyano-2-fluorobenzyl)oxy)-3-fluoropyridin-2-yl)-2,5-difluorobenzyl)-1-(2-methoxyethyl)-1H-benzo[d]imidazole-carboxylic acid]	–
4.83	420	N#Cc1ccc(COc2cccc(-c3ccc(Cc4nc5ccc(C(=O)O)cc5n4C4COC4)c(F)c3)n2)c(F)c1 [Example 203, 2-(4-(6-((4-cyano-2-fluorobenzyl)oxy)pyridin-2-yl)-2-fluorobenzyl)-1-(oxetan-3-yl)-1H-benzo[d]imidazole-6-carboxylic acid]	–
5.33	7.37	N#Cc1ccc(COc2cccc(-c3ccc(Cc4nc5ccc(C(=O)O)cc5n4[C@H]4CCOC4)c(F)c3)n2)c(F)c1 [Example 204, (S)-2-(4-(6-((4-cyano-2-fluorobenzyl)oxy)pyridin-2-yl)-2-fluorobenzyl)-1-(tetrahydrofuran-3-yl)-1H-benzo[d]imidazole-6-carboxylic acid]	–
5	3.23	N#Cc1ccc(COc2cccc(-c3cc(F)c(Cc4nc5cc(F)c(C(=O)O)cc5n4CC4(CF)CC4)cc3F)n2)c(F)c1 [Example 205, 2-(4-(6-((4-cyano-2-fluorobenzyl)oxy)pyridin-2-yl)-2,5-difluorobenzyl)-5-fluoro-1-((1-(fluoromethyl)cyclopropyl)methyl)-1H-benzo[d]imidazole-6-carboxylic acid]	–
3.5	0.86	N#Cc1ccc(COc2cccc(-c3ccc(Cc4nc5cc(F)c(C(=O)O)cc5n4C[C@@H]4CCO4)c(F)c3)n2)c(F)c1 [Example 206]	–
6	35.2	COCCn1c(Cc2ccc(-c3cccc(OCc4ccc(C#N)cc4F)n3)cc2F)nc2cc(F)c(C(=O)O)cc21 [Example 207, 2-(4-(6-((4-cyano-2-fluorobenzyl)oxy)pyridin-2-yl)-2-fluorobenzyl)-5-fluoro-1-(2-methoxyethyl)-1H-benzo[d]imidazole-6-carboxylic acid]	–
3.83	4.67	COCCn1c(Cc2cc(F)c(-c3cccc(OCc4ccc(C#N)cc4F)n3)cc2F)nc2ccc(C(=O)O)nc21 [Example 208, 2-(4-(6-((4-cyano-2-fluorobenzyl)oxy)pyridin-2-yl)-2,5-difluorobenzyl)-3-(2-methoxyethyl)-3H-imidazo[4,5-b]pyridine-5-carboxylic acid]	–
8.5	48.8	N#Cc1ccc(COc2cccc(-c3ccc(Cc4nc5ccc(C(=O)O)cc5n4C4(CF)CC4)cc3F)n2)c(F)c1 [Example 209, 2-(4-(6-((4-cyano-2-fluorobenzyl)oxy)pyridin-2-yl)-3-fluorobenzyl)-1-(1-(fluoromethyl)cyclopropyl)-1H-benzo[d]imidazole-6-carboxylic acid]	–
4.42	≥ 1000	COCCn1c(Cc2ccc(-c3cccc(OCc4ccc(C#N)cc4F)n3)cc2F)nc2ccc(C3(C(=O)O)CC3)cc21 [Example 210, 1-(2-(4-(6-((4-cyano-2-fluorobenzyl)oxy)pyridin-2-yl)-2-fluorobenzyl)-1-(2-methoxyethyl)-1H-benzo[d]imidazol-6-yl)cyclopropane-1-carboxylic acid]	–
8.17	126	COCCn1c(Cc2cc(F)c(-c3cccnc3OCc3ccc(C#N)cc3F)cc2F)nc2ccc(C(=O)O)cc21 [Example 211, 2-(4-(2-((4-cyano-2-fluorobenzyl)oxy)pyridin-3-yl)-2,5-difluorobenzyl)-1-(2-methoxyethyl)-1H-benzo[d]imidazole-carboxylic acid]	–
<1.83	80.1	COCCn1c(Cc2ccc(-c3cccc(OCC(=O)c4ccc(Cl)cc4)n3)cc2F)nc2ccc(C(=O)O)cc21 [Example 212, 2-(4-(6-(2-(4-Chlorophenyl)-2-oxoethoxy)pyridin-2-yl)-2-fluorobenzyl)-1-(2-methoxyethyl)-1H-benzo[d]imidazole-6-carboxylic acid]	–
16.3	745	COCCn1c(Cc2ccc(-c3cccc(OCC(=O)c4ccccc4)n3)cc2F)nc2ccc(C(=O)O)cc21 [Example 214, 2-(2-fluoro-4-(6-(2-oxo-2-phenylethoxy)pyridin-2-yl)benzyl)-1-(2-methoxyethyl)-1H-benzo[d]imidazole-6-carboxylic acid]	–
<1.83	110	COCCn1c(Cc2ccc(-c3cccc(OCc4ccc(C#N)nc4)n3)cc2F)nc2ccc(C(=O)O)cc21 [Example 216, 2-(4-(6-((6-cyanopyridin-3-yl)methoxy)pyridin-2-yl)-2-fluorobenzyl)-1-(2-methoxyethyl)-1H-benzo[d]imidazole-6-carboxylic acid]	–
7.83	19.1	COCCn1c(Cc2cc(F)c(-c3cccc(OCc4ccc(C#N)cc4F)n3)cc2F)nc2cc(F)c(C(=O)O)cc21 [Example 218, 2-(4-(6-((4-cyano-2-fluorobenzyl)oxy)pyridin-2-yl)-2,5-difluorobenzyl)-5-fluoro-1-(2-methoxyethyl)-1H-benzo[d]imidazole-6-carboxylic acid]	–
2.83	0.69	N#Cc1ccc(COc2cccc(-c3cc(F)c(Cc4nc5cc(F)c(C(=O)O)cc5n4C[C@@H]4CCO4)cc3F)n2)c(F)c1 [Example 219, (S)-2-(4-(6-((4-cyano-2-fluorobenzyl)oxy)pyridin-2-yl)-2,5-difluorobenzyl)-5-fluoro-1-(oxetan-2-ylmethyl)-1H-benzo[d]imidazole-6-carboxylic acid]	–

Structure (SMILES)	Predicted Hepatic Clearance (Pred. Cl.) [1] [mL/min/kg]	EC50 (GLP-1R; [2]) [nM]	EC50 (GLP-1R; EC50 (nM)) [nM]
COCCn1c(Cc2cc(F)c(-c3ccc(F)c(OCc4ccc(C#N)cc4F)n3)cc2F)nc2ccc(C(=O)O)cc21 [Example 217, 2-(4-(6-((4-cyano-2-fluorobenzyl)oxy)-5-fluoropyridin-2-yl)-2,5-difluorobenzyl)-1-(2-methoxyethyl)-1H-benzo[d]imidazole-carboxylic acid]	2.75	–	1.72
